Data from ChEMBL document CHEMBL5365456, “Isolation and biological activity of natural chalcones based on antibacterial mechanism classification” (Bioorg Med Chem, 2023).
≈ marks a conversion by molar mass, not a printed value.

Tested on: Mycobacterium tuberculosis
Assay: Antitubercular activity against multi-drug-resistant Mycobacterium tuberculosis M22 assessed as bacterial growth inhibition measured for 9 days
Format: functional
Conditions: M22, 216 h, time 9 day

O=C(CCc1ccc(O)cc1)c1c(O)cc(O)cc1O [PHLORETIN]
MIC90: 182 µM (≈ 49.9 µg/mL)
